# In patent US20100035756A1, “TRIAZOLOPHYRIDINE DERIVATIVES AS HERBICIDES” (SYNGENTA LIMITED, priority 2006, published 2010):
# Tests used:
# [1] = system: Monocotyledonous and dicotyledonous test plants; assay: Herbicidal action prior to emergence of the plants (pre-emergence action), Example B1; type: in vivo; conditions: preemergence application, 250 g/ha, evaluated after 4 weeks, 100%=total damage, 0%=no damage
# Procedure: (§1) Monocotyledonous and dicotyledonous test plants are sown in seed trays in standard soil. Immediately after sowing, the test compounds are applied by spraying in the form of an aqueous suspension (prepared from a wettable powder (Example F3, b) according to WO 97/34485) or in the form of an emulsion (prepared from an emulsifiable concentrate (Example F1, c) according to WO 97/34485) in a concentration of 250 g/ha. The test plants are then grown in a greenhouse under optimum conditions. After a 4-week test period, the test is evaluated (100%=total damage to plant; 0%=no damage to plant; NC not evaluated).
# [2] = system: Monocotyledonous and dicotyledonous test plants; assay: Herbicidal action after emergence of the plants (post-emergence herbicidal action), Example B2; type: in vivo; conditions: postemergent application, 125 g/ha, 2- to 3-leaf stage, evaluated after 2-3 weeks, 100%=total damage
# Procedure: as §1, with “When the test plants are at the 2- to 3-leaf stage,” for “Immediately after sowing,”, “125” for “250”, “grown on” for “grown”, “2- to 3-week” for “4-week”, “plant).” for “plant; NC not evaluated).”
smiles,measurement,setting,value
O=C(C1=C(O)C2CCC(C2)C1=O)c1ccc(C(F)(F)F)n2ncnc12 (stereo not shown) [2.1],"herbicidal damage, ABUTH",[1],100%
same,"herbicidal damage, AMARE",[1],100%
same,"herbicidal damage, BRAPL",[1],100%
same,"herbicidal damage, DIGSA",[1],100%
same,"herbicidal damage, ECHCG",[1],90%
same,"herbicidal damage, SETFA",[1],90%
same,"herbicidal damage, STEME",[1],70%
same,"herbicidal damage, VERPE",[1],40%
O=C(C1=C(O)C2CCC(C2)C1=O)c1ccc(C(F)(F)F)n2nc(Cl)nc12 (stereo not shown) [2.2],"herbicidal damage, ABUTH",[2],40%
same,"herbicidal damage, AMARE",[2],80%
same,"herbicidal damage, CHEAL",[2],80%
same,"herbicidal damage, DIGSA",[2],90%
same,"herbicidal damage, SETFA",[2],80%
same,"herbicidal damage, SINAR",[2],70%
same,"herbicidal damage, VERPE",[2],70%
same,"herbicidal damage, XANST",[2],60%
same,"herbicidal damage, ABUTH",[1],50%
same,"herbicidal damage, AMARE",[1],70%
same,"herbicidal damage, BRAPL",[1],50%
same,"herbicidal damage, DIGSA",[1],50%
same,"herbicidal damage, ECHCG",[1],70%
same,"herbicidal damage, SETFA",[1],10%
same,"herbicidal damage, STEME",[1],0%
same,"herbicidal damage, VERPE",[1],60%
Cc1nc2c(C(=O)C3=C(O)C4CCC(C4)C3=O)ccc(C(F)(F)F)n2n1 (stereo not shown) [2.4],"herbicidal damage, ABUTH",[2],80%
same,"herbicidal damage, AMARE",[2],80%
same,"herbicidal damage, CHEAL",[2],80%
same,"herbicidal damage, DIGSA",[2],70%
same,"herbicidal damage, SETFA",[2],70%
same,"herbicidal damage, SINAR",[2],80%
same,"herbicidal damage, VERPE",[2],30%
same,"herbicidal damage, XANST",[2],80%
same,"herbicidal damage, ABUTH",[1],70%
same,"herbicidal damage, AMARE",[1],60%
same,"herbicidal damage, BRAPL",[1],10%
same,"herbicidal damage, DIGSA",[1],30%
same,"herbicidal damage, SETFA",[1],20%
same,"herbicidal damage, STEME",[1],60%
same,"herbicidal damage, VERPE",[1],10%
CC(C)c1nc2c(C(=O)C3=C(O)C4CCC(C4)C3=O)ccc(C(F)(F)F)n2n1 (stereo not shown) [2.7],"herbicidal damage, ABUTH",[2],70%
same,"herbicidal damage, CHEAL",[2],70%
same,"herbicidal damage, DIGSA",[2],20%
same,"herbicidal damage, SETFA",[2],20%
same,"herbicidal damage, SINAR",[2],60%
same,"herbicidal damage, VERPE",[2],10%
same,"herbicidal damage, XANST",[2],70%
same,"herbicidal damage, ABUTH",[1],30%
same,"herbicidal damage, AMARE",[1],20%
same,"herbicidal damage, BRAPL",[1],0%
same,"herbicidal damage, DIGSA",[1],0%
same,"herbicidal damage, ECHCG",[1],10%
same,"herbicidal damage, SETFA",[1],0%
same,"herbicidal damage, STEME",[1],20%
same,"herbicidal damage, VERPE",[1],50%
O=C(C1=C(O)C2CCC(C2)C1=O)c1ccc(C(F)(F)F)n2nc(-c3ccc(Cl)cc3)nc12 (stereo not shown) [2.35],"herbicidal damage, ABUTH",[1],0%
same,"herbicidal damage, AMARE",[1],0%
same,"herbicidal damage, BRAPL",[1],50%
same,"herbicidal damage, DIGSA",[1],20%
same,"herbicidal damage, ECHCG",[1],0%
same,"herbicidal damage, SETFA",[1],0%
same,"herbicidal damage, STEME",[1],50%
same,"herbicidal damage, VERPE",[1],0%
CCOc1nc2c(C(=O)C3=C(O)C4CCC(C4)C3=O)ccc(C(F)(F)F)n2n1 (stereo not shown) [2.209],"herbicidal damage, ABUTH",[2],80%
same,"herbicidal damage, AMARE",[2],90%
same,"herbicidal damage, CHEAL",[2],80%
same,"herbicidal damage, DIGSA",[2],80%
same,"herbicidal damage, SETFA",[2],80%
same,"herbicidal damage, SINAR",[2],80%
same,"herbicidal damage, VERPE",[2],80%
same,"herbicidal damage, XANST",[2],80%
same,"herbicidal damage, ABUTH",[1],100%
same,"herbicidal damage, AMARE",[1],100%
same,"herbicidal damage, BRAPL",[1],90%
same,"herbicidal damage, DIGSA",[1],80%
same,"herbicidal damage, ECHCG",[1],70%
same,"herbicidal damage, SETFA",[1],80%
same,"herbicidal damage, STEME",[1],70%
same,"herbicidal damage, VERPE",[1],30%
Cc1nc2c(C(=O)C3=C(O)C(C)(C)C(=O)C(C)(C)C3=O)ccc(C(F)(F)F)n2n1 [13.3],"herbicidal damage, ABUTH",[2],80%
same,"herbicidal damage, AMARE",[2],70%
same,"herbicidal damage, CHEAL",[2],50%
same,"herbicidal damage, DIGSA",[2],60%
same,"herbicidal damage, SETFA",[2],70%
same,"herbicidal damage, SINAR",[2],80%
same,"herbicidal damage, VERPE",[2],70%
same,"herbicidal damage, XANST",[2],80%
same,"herbicidal damage, ABUTH",[1],100%
same,"herbicidal damage, AMARE",[1],90%
same,"herbicidal damage, BRAPL",[1],80%
same,"herbicidal damage, DIGSA",[1],80%
same,"herbicidal damage, ECHCG",[1],30%
same,"herbicidal damage, SETFA",[1],70%
same,"herbicidal damage, STEME",[1],100%
same,"herbicidal damage, VERPE",[1],100%
O=C(C1=C(O)C2CCC(C2)C1=O)c1ccc(C(F)(F)F)n2cnnc12 (stereo not shown) [Compound 1.1],"herbicidal damage, ABUTH",[2],80%
same,"herbicidal damage, AMARE",[2],80%
same,"herbicidal damage, CHEAL",[2],80%
same,"herbicidal damage, DIGSA",[2],60%
same,"herbicidal damage, SETFA",[2],80%
same,"herbicidal damage, SINAR",[2],90%
same,"herbicidal damage, VERPE",[2],50%
same,"herbicidal damage, XANST",[2],80%
same,"herbicidal damage, ABUTH",[1],100%
same,"herbicidal damage, BRAPL",[1],30%
same,"herbicidal damage, DIGSA",[1],70%
same,"herbicidal damage, ECHCG",[1],0%
same,"herbicidal damage, SETFA",[1],30%
same,"herbicidal damage, STEME",[1],100%
same,"herbicidal damage, VERPE",[1],60%
O=C(C1=C(O)C2CCC(C2)C1=O)c1ccc(C(F)(F)F)n2c(-c3ccc(Cl)cc3)nnc12 (stereo not shown) [Compound 1.35],"herbicidal damage, ABUTH",[1],50%
same,"herbicidal damage, AMARE",[1],100%
same,"herbicidal damage, BRAPL",[1],100%
same,"herbicidal damage, DIGSA",[1],100%
same,"herbicidal damage, ECHCG",[1],0%
same,"herbicidal damage, SETFA",[1],30%
same,"herbicidal damage, STEME",[1],70%
same,"herbicidal damage, VERPE",[1],40%
O=C1CCCC(O)=C1C(=O)c1ccc(C(F)(F)F)n2cnnc12 [Compound 3.1],"herbicidal damage, ABUTH",[1],100%
same,"herbicidal damage, AMARE",[1],100%
same,"herbicidal damage, BRAPL",[1],40%
same,"herbicidal damage, DIGSA",[1],100%
same,"herbicidal damage, ECHCG",[1],10%
same,"herbicidal damage, SETFA",[1],0%
same,"herbicidal damage, STEME",[1],70%
same,"herbicidal damage, VERPE",[1],60%
O=C1CCCC(O)=C1C(=O)c1ccc(C(F)(F)F)n2c(Cl)nnc12 [Compound 3.2],"herbicidal damage, ABUTH",[1],100%
same,"herbicidal damage, AMARE",[1],100%
same,"herbicidal damage, BRAPL",[1],0%
same,"herbicidal damage, DIGSA",[1],80%
same,"herbicidal damage, ECHCG",[1],70%
same,"herbicidal damage, SETFA",[1],0%
same,"herbicidal damage, STEME",[1],100%
same,"herbicidal damage, VERPE",[1],100%
O=C1CCCC(O)=C1C(=O)c1ccc(C(F)(F)F)n2c(OC(F)F)nnc12 [Compound 3.12],"herbicidal damage, ABUTH",[1],50%
same,"herbicidal damage, AMARE",[1],100%
same,"herbicidal damage, BRAPL",[1],60%
same,"herbicidal damage, DIGSA",[1],10%
same,"herbicidal damage, ECHCG",[1],0%
same,"herbicidal damage, SETFA",[1],0%
same,"herbicidal damage, STEME",[1],0%
O=C1CCCC(O)=C1C(=O)c1ccc(C(F)(F)F)n2c(-c3cccnc3)nnc12 [Compound 3.15],"herbicidal damage, ABUTH",[1],10%
same,"herbicidal damage, AMARE",[1],0%
same,"herbicidal damage, BRAPL",[1],30%
same,"herbicidal damage, DIGSA",[1],30%
same,"herbicidal damage, ECHCG",[1],30%
same,"herbicidal damage, SETFA",[1],30%
same,"herbicidal damage, STEME",[1],60%
same,"herbicidal damage, VERPE",[1],30%
CC1(C)C(=O)C(C(=O)c2ccc(C(F)(F)F)n3cnnc23)=C(O)C(C)(C)C1=O [Compound 5.1],"herbicidal damage, ABUTH",[1],100%
same,"herbicidal damage, AMARE",[1],100%
same,"herbicidal damage, BRAPL",[1],100%
same,"herbicidal damage, DIGSA",[1],100%
same,"herbicidal damage, ECHCG",[1],90%
same,"herbicidal damage, SETFA",[1],40%
same,"herbicidal damage, STEME",[1],100%
same,"herbicidal damage, VERPE",[1],80%
CC1(C)C(=O)C(C(=O)c2ccc(C(F)(F)F)n3c(Br)nnc23)=C(O)C(C)(C)C1=O [Compound 5.2],"herbicidal damage, ABUTH",[2],90%
same,"herbicidal damage, AMARE",[2],80%
same,"herbicidal damage, CHEAL",[2],100%
same,"herbicidal damage, DIGSA",[2],70%
same,"herbicidal damage, SETFA",[2],80%
same,"herbicidal damage, SINAR",[2],90%
same,"herbicidal damage, VERPE",[2],90%
same,"herbicidal damage, XANST",[2],70%
Cc1nc2c(C(=O)C3=C(O)CCCC3=O)ccc(C(F)(F)F)n2n1 [Compound 11.3],"herbicidal damage, ABUTH",[1],70%
same,"herbicidal damage, AMARE",[1],40%
same,"herbicidal damage, BRAPL",[1],50%
same,"herbicidal damage, DIGSA",[1],30%
same,"herbicidal damage, ECHCG",[1],0%
same,"herbicidal damage, SETFA",[1],10%
same,"herbicidal damage, STEME",[1],40%
same,"herbicidal damage, VERPE",[1],40%
